Test results from ChEMBL document CHEMBL5465560, “Selectivity Literature for EUbOPEN Chemogenomic Library” (2024).

Legend:
[1] = target: Protein kinase C gamma type (Homo sapiens) (UniProt P05129); test: Selectivity interaction (Upstate Kinase Profiler service (Millipore)) EUB0000056c PRKCG; details: at 1 µM
[2] = system: Proto-oncogene tyrosine-protein kinase receptor Ret (Homo sapiens), P07949 [M918T]; test: (§1) Selectivity interaction (KinomeScan (DiscoverX)) EUB0000666a RET; details: at 10 µM
Proto-oncogene tyrosine-protein kinase receptor Ret (Homo sapiens), P07949 [M918T], sequence (P07949 whole entry M918T): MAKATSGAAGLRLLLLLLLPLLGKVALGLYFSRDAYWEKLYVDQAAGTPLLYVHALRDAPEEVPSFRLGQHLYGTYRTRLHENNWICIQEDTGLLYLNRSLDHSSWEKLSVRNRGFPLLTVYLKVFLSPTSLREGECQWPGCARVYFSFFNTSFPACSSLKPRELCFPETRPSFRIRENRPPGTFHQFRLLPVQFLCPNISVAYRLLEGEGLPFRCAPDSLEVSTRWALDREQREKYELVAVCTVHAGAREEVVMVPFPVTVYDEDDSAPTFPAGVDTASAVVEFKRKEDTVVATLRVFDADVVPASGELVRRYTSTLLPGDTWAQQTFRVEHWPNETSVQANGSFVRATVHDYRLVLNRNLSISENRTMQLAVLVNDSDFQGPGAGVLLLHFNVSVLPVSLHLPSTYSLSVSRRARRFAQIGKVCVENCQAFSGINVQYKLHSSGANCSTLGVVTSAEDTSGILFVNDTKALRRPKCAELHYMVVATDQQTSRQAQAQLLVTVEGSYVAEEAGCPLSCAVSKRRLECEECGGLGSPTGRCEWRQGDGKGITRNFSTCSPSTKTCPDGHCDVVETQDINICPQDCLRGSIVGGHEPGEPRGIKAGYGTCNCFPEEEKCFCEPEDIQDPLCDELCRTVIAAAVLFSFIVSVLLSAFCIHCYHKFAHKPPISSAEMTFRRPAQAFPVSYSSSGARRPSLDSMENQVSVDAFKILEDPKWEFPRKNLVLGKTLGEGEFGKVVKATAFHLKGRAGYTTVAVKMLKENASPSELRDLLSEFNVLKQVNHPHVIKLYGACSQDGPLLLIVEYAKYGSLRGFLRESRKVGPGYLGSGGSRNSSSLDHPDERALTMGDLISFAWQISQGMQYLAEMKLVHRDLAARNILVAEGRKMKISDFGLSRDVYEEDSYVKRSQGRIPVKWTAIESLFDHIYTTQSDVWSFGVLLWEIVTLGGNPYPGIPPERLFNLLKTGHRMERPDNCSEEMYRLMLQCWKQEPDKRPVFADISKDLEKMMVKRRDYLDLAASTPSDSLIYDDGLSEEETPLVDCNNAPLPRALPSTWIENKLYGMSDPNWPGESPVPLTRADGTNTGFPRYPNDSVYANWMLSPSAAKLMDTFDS

[3] = system: Proto-oncogene tyrosine-protein kinase receptor Ret (Homo sapiens), P07949 [V804M]; test: as §1; details: at 10 µM
Proto-oncogene tyrosine-protein kinase receptor Ret (Homo sapiens), P07949 [V804M], sequence (P07949 whole entry V804M): as the sequence (P07949 whole entry M918T) above, with V804M, T918M counted along it

[4] = target: Proto-oncogene tyrosine-protein kinase receptor Ret (Homo sapiens, UniProt P07949); test: as §1; details: at 10 µM
Proto-oncogene tyrosine-protein kinase receptor Ret, sequence (P07949 whole entry): as the sequence (P07949 whole entry M918T) above, with T918M counted along it

[5] = target: Cyclin-dependent kinase 8 (Homo sapiens, UniProt P49336); test: Selectivity interaction (ActivX KiNativ screen (kinase selectivity in THP-1 cell lysates)) EUB0000639a CDK8; format: subcellular; details: lysate
Cyclin-dependent kinase 8, sequence (P49336 whole entry): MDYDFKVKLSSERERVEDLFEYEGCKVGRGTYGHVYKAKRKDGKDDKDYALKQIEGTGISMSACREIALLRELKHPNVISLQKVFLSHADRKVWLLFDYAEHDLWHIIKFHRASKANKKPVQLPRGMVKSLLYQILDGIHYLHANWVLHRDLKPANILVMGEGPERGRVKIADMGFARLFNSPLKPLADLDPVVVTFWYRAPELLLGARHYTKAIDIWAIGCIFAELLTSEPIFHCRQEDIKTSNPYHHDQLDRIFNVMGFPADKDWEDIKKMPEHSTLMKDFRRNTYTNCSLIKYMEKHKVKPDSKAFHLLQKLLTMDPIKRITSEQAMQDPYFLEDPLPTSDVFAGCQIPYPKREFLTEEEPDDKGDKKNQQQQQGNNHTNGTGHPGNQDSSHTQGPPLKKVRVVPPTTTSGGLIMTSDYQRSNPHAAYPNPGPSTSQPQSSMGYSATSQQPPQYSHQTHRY

[6] = target: Mitogen-activated protein kinase 14 (Homo sapiens, UniProt Q16539); test: Selectivity interaction (KinomeScan (DiscoverX)) EUB0000607a MAPK14; details: at 10 µM
Mitogen-activated protein kinase 14, sequence (Q16539 whole entry): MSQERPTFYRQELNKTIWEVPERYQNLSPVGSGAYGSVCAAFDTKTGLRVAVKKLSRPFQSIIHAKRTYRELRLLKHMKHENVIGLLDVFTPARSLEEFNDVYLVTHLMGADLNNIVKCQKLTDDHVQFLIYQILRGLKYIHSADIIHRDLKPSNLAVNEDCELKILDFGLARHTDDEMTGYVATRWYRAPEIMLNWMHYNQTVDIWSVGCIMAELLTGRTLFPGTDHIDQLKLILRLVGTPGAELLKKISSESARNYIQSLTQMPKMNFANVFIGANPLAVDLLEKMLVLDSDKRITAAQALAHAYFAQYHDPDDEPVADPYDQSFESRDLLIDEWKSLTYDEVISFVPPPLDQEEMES

[7] = target: Calcium/calmodulin-dependent protein kinase type 1 (Homo sapiens) (UniProt Q14012); test: Selectivity interaction (KinomeScan (DiscoverX)) EUB0000595a CAMK1; details: at 10 µM
Calcium/calmodulin-dependent protein kinase type 1 (Homo sapiens), sequence (Q14012 whole entry, looked up): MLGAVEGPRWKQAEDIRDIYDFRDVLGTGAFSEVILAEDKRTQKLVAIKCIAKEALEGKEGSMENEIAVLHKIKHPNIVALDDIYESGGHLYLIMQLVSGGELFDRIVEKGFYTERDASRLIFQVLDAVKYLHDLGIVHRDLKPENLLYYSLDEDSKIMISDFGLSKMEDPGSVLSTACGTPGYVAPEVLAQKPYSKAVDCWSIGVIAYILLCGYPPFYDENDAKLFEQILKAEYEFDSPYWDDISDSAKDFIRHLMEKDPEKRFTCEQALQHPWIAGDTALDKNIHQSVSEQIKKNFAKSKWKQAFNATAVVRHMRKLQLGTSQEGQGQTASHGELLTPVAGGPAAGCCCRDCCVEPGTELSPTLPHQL

[8] = target: T1, Tyrosine-protein kinase Tec (Homo sapiens) (UniProt P42680); test: Selectivity interaction (Ambit KINOMEscan and KiNATiv profiling in Jurkat cells) EUB0000090b TEC; format: cell-based; details: at 1 µM
T1 sequence (whole entry): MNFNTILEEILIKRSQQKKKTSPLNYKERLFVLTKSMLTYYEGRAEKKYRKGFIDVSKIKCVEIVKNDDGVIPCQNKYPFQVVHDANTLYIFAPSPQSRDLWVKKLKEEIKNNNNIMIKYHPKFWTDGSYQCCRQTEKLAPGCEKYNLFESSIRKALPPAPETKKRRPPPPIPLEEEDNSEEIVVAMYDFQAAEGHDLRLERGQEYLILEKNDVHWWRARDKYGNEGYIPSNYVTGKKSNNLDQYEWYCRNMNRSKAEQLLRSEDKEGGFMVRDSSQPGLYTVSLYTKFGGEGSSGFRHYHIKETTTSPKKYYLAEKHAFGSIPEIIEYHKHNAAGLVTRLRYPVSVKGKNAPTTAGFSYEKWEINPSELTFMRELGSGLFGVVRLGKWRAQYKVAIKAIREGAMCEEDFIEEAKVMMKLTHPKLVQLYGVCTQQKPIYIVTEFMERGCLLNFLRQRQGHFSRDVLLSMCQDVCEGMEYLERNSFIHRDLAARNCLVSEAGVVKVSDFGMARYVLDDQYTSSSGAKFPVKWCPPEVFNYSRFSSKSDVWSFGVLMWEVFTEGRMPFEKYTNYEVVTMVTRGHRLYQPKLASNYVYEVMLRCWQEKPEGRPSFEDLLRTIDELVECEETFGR

[9] = target: T2, Mitogen-activated protein kinase kinase kinase 19 (Homo sapiens) (UniProt Q56UN5); test: Selectivity interaction (KinomeScan (DiscoverX)) EUB0001619a MAP3K19; details: at 1 µM
T2 sequence (whole entry): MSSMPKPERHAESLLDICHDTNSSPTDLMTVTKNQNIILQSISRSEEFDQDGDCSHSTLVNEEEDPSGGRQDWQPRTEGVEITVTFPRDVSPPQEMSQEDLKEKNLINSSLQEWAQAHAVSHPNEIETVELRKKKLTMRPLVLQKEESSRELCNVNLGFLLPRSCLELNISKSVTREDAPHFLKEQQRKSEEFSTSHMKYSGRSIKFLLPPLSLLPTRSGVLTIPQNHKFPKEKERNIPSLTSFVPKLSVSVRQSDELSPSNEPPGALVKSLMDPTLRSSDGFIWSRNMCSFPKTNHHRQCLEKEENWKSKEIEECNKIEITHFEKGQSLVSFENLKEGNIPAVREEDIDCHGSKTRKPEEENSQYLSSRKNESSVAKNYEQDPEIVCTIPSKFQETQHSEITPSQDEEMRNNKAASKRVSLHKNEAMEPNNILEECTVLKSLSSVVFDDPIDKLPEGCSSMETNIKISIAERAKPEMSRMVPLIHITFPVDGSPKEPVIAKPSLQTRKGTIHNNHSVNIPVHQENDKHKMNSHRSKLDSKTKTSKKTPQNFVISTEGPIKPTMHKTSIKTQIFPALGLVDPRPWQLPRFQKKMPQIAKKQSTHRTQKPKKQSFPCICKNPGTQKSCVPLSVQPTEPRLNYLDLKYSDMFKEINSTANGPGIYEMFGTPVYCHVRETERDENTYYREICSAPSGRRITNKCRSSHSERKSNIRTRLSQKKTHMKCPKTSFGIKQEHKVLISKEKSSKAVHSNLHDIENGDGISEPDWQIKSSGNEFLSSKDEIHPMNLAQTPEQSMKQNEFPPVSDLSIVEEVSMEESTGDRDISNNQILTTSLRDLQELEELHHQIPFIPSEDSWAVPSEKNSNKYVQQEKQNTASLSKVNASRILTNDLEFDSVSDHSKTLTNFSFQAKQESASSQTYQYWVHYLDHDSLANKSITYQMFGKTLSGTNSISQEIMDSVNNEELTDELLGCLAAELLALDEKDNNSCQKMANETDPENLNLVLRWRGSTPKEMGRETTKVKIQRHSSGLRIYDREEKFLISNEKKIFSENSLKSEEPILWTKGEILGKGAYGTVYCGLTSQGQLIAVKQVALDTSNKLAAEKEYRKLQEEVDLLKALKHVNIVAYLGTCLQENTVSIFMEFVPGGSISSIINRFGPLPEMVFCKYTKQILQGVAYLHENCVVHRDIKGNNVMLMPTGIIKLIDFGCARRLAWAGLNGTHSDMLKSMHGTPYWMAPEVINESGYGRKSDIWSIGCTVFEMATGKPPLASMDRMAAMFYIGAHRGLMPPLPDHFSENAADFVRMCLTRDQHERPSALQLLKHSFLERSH

[10] = target: Ribosomal protein S6 kinase alpha-6 (Homo sapiens, UniProt Q9UK32); test: Selectivity interaction (KinomeScan (DiscoverX)) EUB0001619a RPS6KA6; details: at 1 µM
Ribosomal protein S6 kinase alpha-6, sequence (Q9UK32 whole entry): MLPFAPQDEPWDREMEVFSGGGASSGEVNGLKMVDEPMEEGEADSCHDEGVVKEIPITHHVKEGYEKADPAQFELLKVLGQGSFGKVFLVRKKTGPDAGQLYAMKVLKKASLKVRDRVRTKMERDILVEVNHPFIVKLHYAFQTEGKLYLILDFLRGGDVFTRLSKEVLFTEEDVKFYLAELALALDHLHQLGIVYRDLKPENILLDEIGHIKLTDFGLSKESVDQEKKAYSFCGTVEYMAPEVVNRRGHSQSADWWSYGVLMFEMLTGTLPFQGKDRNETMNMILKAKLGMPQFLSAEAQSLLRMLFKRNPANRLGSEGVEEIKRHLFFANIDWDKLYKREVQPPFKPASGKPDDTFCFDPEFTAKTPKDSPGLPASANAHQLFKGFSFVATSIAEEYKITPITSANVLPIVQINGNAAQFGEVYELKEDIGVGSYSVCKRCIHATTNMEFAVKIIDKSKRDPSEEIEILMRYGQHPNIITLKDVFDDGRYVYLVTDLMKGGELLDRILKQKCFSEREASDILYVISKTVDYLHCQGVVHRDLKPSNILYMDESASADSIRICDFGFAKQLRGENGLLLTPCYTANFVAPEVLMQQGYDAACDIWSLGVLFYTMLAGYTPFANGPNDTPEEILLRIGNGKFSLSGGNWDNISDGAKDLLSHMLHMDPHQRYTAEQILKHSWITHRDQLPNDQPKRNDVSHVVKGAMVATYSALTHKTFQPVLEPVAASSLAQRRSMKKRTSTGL

Structure (SMILES): Cc1ccc(-c2ccc3c(ccc4sc5c(c43)NC[C@@H](C)NC5=O)n2)cn1
- % of inhibition [1]: 17%

Structure (SMILES): O=C(NOC[C@H](O)CO)c1ccc(F)c(F)c1Nc1ccc(I)cc1F
- % of control [2]: 79%
- % of control [3]: 100%
- % of control [4]: 90%

Structure (SMILES): CC[C@@H]1[C@H](F)C(=O)N[C@@H]1COc1nccc2cc(C(N)=O)c(OC)cc12 [ZIMLOVISERTIB]
- % of inhibition ([5]; at 0.01 µM): 10.4%
- % of inhibition ([5]; at 0.04 µM): -11.1%
- % of inhibition ([5]; at 0.2 µM): 2.6%
- % of inhibition ([5]; at 1 µM): 7.8%
- % of inhibition ([5]; at 5 µM): 18.7%

Structure (SMILES): CNC(=O)Nc1ccc(-c2nc(N3CC4CCC(C3)O4)c3cnn(C4CCC5(CC4)OCCO5)c3n2)cc1
- % of control [6]: 100%

Structure (SMILES): COCC(=O)NC/C=C/c1ccc2ncnc(Nc3ccc(Oc4ccc(C)nc4)c(C)c3)c2c1 [CP-724714]
- % of control [7]: 72%

Structure (SMILES): CN(C)C/C=C/C(=O)Nc1ccc(C(=O)N2CCCC(Nc3ncc(Cl)c(-c4c[nH]c5ccccc45)n3)C2)cc1 (centres undefined)
- % of control [8]: 99%

Structure (SMILES): N#Cc1cccc(-c2c[nH]c3ncnc(N4CCOCC4)c23)c1
- % of control [9]: 3.8%
- % of control [10]: 29%
